Laboratory results taken from publication PMC8501799, “Constitutive signal bias mediated by the human GHRHR splice variant 1” (Proceedings of the National Academy of Sciences of the …, 2021).

Legend:
Assay in all cases: cAMP accumulation
GHRHR F82A = molecular target: T1, GHRHR F82A (Homo sapiens, UniProt Q02643, F82A); type: cell-based; settings: Table S2, mean ± SEM
T1 construct: expressed in transfected cells; host or cells: HEK293T
Experimental: (§1) GHRH-stimulated cAMP accumulation was measured by a LANCE Ultra cAMP kit (PerkinElmer). Briefly, HEK293T cells (24 h after transfection with SV1 or GHRHR) or prostate cancer cells were digested by 0.2% (wt/vol) EDTA and washed once with Dulbecco’s phosphate-buffered saline (PBS). Cells were then resuspended with stimulation buffer (Hanks’ balanced salt solution [HBSS] supplemented with 5 mM HEPES, 0.5 mM IBMX, and 0.1% [wt/vol] bovine serum albumin [BSA], pH 7.4) to a density of 0.6 million cells per milliliter and added to 384-well white plates (3,000 cells per well). […] The reaction was stopped by adding 5 μL Eu-cAMP tracer and 5 μL ULight-anti-cAMP. After 1 h RT incubation, TR-FRET signals (excitation: 320 nm, emission: 615 and 665 nm) were measured by an Envision plate reader (PerkinElmer). cAMP concentrations were interpolated by a standard curve.
(§2) All functional study data were analyzed using Prism 7 (GraphPad) and presented as means ± SEM from at least three independent experiments. Concentration-response curves were evaluated with a three-parameter logistic equation. The significance was determined with either two-tailed Student’s t test or one-way ANOVA, and P < 0.05 is considered statistically significant.
(§3) Table S2. Effects of residue mutation or truncation in the ECD of GHRHR on GHRH-induced cAMP […]
(§4) Mutant pEC50 Emax (% WT GHRHR) expression ΔLog (τ/KA) […]
(§5) cAMP accumulation data were analyzed using a three-parameter logistic equation to determine pEC50 and Emax values. pEC50 is the negative logarithm of the molar concentration of agonist that induced half the maximal response. Emax for mutants is expressed as a percentage of the WT GHRHR. Data were analyzed by nonlinear regression using the operational model equation to determine t he logR values (logτ/KA, i.e., logarithm of the transduction ratio). τ is the effi cacy value of the agonist and was corrected by cell surface expression of the receptor. KA is dissociation constant. Changes in transduction ratio (ΔlogR) were calculated to determine the relative effectiveness of the mutants. All values are means ± S.E.M. of at le ast three ind ep en dent experiments (n = 3-5) conducted in quadruplicate. Statistical analysis was carried out by comparing the control responses in the WT GHRHR. **, P < 0.01 and ***, P < 0.001, determined by one-way

GHRHR F85A = molecular target: T2, GHRHR F85A (Homo sapiens, UniProt Q02643, F85A); type: cell-based; settings: Table S2, mean ± SEM
T2 construct: expressed in transfected cells; host or cells: HEK293T
T2 sequence (Q02643 23-423 F85A): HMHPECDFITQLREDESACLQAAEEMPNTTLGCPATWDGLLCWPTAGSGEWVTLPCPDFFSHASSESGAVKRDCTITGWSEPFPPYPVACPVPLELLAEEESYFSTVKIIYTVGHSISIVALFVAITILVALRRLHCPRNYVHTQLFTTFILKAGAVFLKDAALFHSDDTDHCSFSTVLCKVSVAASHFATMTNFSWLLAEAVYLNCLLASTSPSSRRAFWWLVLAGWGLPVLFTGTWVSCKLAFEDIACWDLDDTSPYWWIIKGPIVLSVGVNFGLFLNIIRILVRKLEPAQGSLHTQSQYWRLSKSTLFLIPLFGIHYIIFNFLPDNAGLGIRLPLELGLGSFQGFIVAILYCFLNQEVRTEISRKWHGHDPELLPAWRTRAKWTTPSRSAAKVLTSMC
Experimental: as §1, §2, §3, §4, §5

[1] = molecular target: T3, GHRHR L34A-L62A-F82A-F85A (Homo sapiens, UniProt Q02643, F82A/F85A/L34A/L62A); type: cell-based; settings: Table S2, mean ± SEM
T3 construct: expressed in transfected cells; host or cells: HEK293T
T3 sequence (Q02643 23-423 L34A/L62A/F82A/F85A): as the sequence (Q02643 23-423 F85A) above, with L12A, L40A, F60A counted along it
Experimental: as §1, §2, §3, §4, §5

GHRHR Δ102 = molecular target: T4, GHRHR Δ102 (Homo sapiens, UniProt Q02643); type: cell-based; settings: Table S2, mean ± SEM
T4 construct: expressed in transfected cells; host or cells: HEK293T
Experimental: as §1, §2, §3, §4, §5

GHRHR Δ112 = molecular target: T5, GHRHR Δ112 (Homo sapiens, UniProt Q02643); type: cell-based; settings: Table S2, mean ± SEM
T5 construct: expressed in transfected cells; host or cells: HEK293T
Experimental: as §1, §2, §3, §4, §5

GHRHR Δ42 = molecular target: T6, GHRHR Δ42 (Homo sapiens, UniProt Q02643); type: cell-based; settings: Table S2, mean ± SEM
T6 construct: expressed in transfected cells; host or cells: HEK293T
T6 sequence (Q02643 43-423 limits assumed, stated change not applied): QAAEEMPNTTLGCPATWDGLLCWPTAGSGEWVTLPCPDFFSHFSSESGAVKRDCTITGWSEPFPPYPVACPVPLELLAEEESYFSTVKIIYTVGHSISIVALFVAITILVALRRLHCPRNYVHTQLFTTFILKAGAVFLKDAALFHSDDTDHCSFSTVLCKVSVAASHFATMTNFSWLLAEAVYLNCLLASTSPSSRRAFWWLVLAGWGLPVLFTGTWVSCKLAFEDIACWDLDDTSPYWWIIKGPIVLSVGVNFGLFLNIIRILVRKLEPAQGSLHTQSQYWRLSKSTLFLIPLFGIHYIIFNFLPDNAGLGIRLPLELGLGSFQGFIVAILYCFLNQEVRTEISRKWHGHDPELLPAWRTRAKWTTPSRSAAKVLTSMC
Experimental: as §1, §2, §3, §4, §5

GHRHR Δ52 = molecular target: T7, GHRHR Δ52 (Homo sapiens, UniProt Q02643); type: cell-based; settings: Table S2, mean ± SEM
T7 construct: expressed in transfected cells; host or cells: HEK293T
T7 sequence (Q02643 53-423 limits assumed, stated change not applied): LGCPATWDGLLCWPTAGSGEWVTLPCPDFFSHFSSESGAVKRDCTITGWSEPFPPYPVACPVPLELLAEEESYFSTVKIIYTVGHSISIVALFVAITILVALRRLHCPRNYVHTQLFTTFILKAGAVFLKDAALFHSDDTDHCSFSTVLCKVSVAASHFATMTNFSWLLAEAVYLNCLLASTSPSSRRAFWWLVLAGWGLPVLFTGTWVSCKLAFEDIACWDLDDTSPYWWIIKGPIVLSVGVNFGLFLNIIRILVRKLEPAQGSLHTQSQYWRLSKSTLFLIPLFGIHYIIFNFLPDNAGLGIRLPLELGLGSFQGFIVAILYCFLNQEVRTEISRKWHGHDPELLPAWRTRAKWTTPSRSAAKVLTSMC
Experimental: as §1, §2, §3, §4, §5

GHRHR Δ62 = molecular target: T8, GHRHR Δ62 (Homo sapiens, UniProt Q02643); type: cell-based; settings: Table S2, mean ± SEM
T8 construct: expressed in transfected cells; host or cells: HEK293T
T8 sequence (Q02643 63-423 limits assumed, stated change not applied): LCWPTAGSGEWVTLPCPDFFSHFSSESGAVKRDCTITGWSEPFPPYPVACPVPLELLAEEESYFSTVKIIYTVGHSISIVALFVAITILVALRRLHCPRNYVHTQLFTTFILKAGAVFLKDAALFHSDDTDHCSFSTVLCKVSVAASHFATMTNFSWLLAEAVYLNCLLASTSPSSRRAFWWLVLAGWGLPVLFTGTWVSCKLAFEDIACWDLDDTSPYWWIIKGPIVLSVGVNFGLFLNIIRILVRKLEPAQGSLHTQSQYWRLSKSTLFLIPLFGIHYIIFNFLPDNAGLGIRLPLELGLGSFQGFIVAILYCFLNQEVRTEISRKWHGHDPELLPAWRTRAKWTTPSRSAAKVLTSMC
Experimental: as §1, §2, §3, §4, §5

GHRHR Δ72 = molecular target: T9, GHRHR Δ72 (Homo sapiens, UniProt Q02643); type: cell-based; settings: Table S2, mean ± SEM
T9 construct: expressed in transfected cells; host or cells: HEK293T
T9 sequence (Q02643 73-423 limits assumed, stated change not applied): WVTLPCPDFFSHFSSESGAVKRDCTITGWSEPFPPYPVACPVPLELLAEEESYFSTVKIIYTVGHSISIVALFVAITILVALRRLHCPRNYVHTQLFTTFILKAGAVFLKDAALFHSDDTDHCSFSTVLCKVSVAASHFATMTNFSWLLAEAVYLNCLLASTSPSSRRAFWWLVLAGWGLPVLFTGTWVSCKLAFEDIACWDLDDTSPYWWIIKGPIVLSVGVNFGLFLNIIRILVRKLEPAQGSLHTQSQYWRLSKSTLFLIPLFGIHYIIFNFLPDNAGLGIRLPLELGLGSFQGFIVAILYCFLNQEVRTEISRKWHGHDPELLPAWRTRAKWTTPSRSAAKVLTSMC
Experimental: as §1, §2, §3, §4, §5

GHRHR Δ82 = molecular target: T10, GHRHR Δ82 (Homo sapiens, UniProt Q02643); type: cell-based; settings: Table S2, mean ± SEM
T10 construct: expressed in transfected cells; host or cells: HEK293T
T10 sequence (Q02643 83-423 limits assumed, stated change not applied): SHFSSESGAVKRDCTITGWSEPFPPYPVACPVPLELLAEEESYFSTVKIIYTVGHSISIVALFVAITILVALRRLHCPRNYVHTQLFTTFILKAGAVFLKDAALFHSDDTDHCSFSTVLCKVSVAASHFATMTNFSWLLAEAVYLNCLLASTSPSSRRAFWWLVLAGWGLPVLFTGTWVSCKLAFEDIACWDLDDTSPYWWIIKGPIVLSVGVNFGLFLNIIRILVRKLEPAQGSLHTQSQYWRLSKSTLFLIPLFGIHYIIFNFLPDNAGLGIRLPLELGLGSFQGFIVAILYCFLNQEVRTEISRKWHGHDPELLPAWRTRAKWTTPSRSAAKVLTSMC
Experimental: as §1, §2, §3, §4, §5

GHRHR Δ89 = molecular target: T11, GHRHR Δ89 (Homo sapiens, UniProt Q02643); type: cell-based
T11 construct: expressed in transfected cells; host or cells: HEK293T
T11 sequence (Q02643 90-423): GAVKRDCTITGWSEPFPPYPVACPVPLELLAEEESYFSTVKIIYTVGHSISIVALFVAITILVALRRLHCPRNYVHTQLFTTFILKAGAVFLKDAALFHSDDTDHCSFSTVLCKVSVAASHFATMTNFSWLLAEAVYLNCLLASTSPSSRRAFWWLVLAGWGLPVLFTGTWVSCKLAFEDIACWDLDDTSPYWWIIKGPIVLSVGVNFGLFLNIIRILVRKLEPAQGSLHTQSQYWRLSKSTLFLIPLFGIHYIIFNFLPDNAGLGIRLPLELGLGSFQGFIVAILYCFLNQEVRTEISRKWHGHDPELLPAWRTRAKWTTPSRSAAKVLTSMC
Experimental: as §1, §2, §3, §4, §5

GHRHR ΔECD = type: cell-based, human
Experimental: as §1, §2, §3, §4, §5

[2] = HEK-293T, HEK293T, n = 3-5 in quadruplicate
[3] = operational model, τ corrected by cell surface expression, relative to WT GHRHR
[4] = Table S2, operational model, τ corrected by cell surface expression, relative to WT GHRHR, mean ± SEM

T1 sequence (Q02643 23-423 F82A): as the sequence (Q02643 23-423 F85A) above, with F60A, A63F counted along it

SMILES: CC[C@H](C)[C@H](NC(=O)[C@H](C)NC(=O)[C@H](CC(=O)O)NC(=O)[C@H](C)NC(=O)[C@@H](N)Cc1ccc(O)cc1)C(=O)N[C@@H](Cc1ccccc1)C(=O)N[C@H](C(=O)N[C@@H](CC(N)=O)C(=O)N[C@@H](CO)C(=O)N[C@@H](Cc1ccc(O)cc1)C(=O)N[C@@H](CCCNC(=N)N)C(=O)N[C@@H](CCCCN)C(=O)N[C@H](C(=O)N[C@@H](CC(C)C)C(=O)NCC(=O)N[C@@H](CCC(N)=O)C(=O)N[C@@H](CC(C)C)C(=O)N[C@@H](CO)C(=O)N[C@@H](C)C(=O)N[C@@H](CCCNC(=N)N)C(=O)N[C@@H](CCCCN)C(=O)N[C@@H](CC(C)C)C(=O)N[C@@H](CC(C)C)C(=O)N[C@@H](CCC(N)=O)C(=O)N[C@@H](CC(=O)O)C(=O)N[C@H](C(=O)N[C@@H](CCSC)C(=O)N[C@@H](CO)C(=O)N[C@@H](CCCNC(=N)N)C(=O)N[C@@H](CCC(N)=O)C(=O)N[C@@H](CCC(N)=O)C(=O)NCC(=O)N[C@@H](CCC(=O)O)C(=O)N[C@@H](CO)C(=O)N[C@@H](CC(N)=O)C(=O)N[C@@H](CCC(N)=O)C(=O)N[C@@H](CCC(=O)O)C(=O)N[C@@H](CCCNC(=N)N)C(=O)NCC(=O)N[C@@H](C)C(=O)N[C@@H](CCCNC(=N)N)C(=O)N[C@@H](C)C(=O)N[C@@H](CCCNC(=N)N)C(=O)N[C@@H](CC(C)C)C(N)=O)[C@@H](C)CC)C(C)C)[C@@H](C)O [GHRH, growth hormone–releasing hormone]
- Emax (GHRHR F82A; [2]): 99.8 ± 1.36%
- ΔLog (τ/KA) (GHRHR F82A; [3]): -0.53 ± 0.05
- Emax (GHRHR F85A; [2]): 100 ± 1.69%
- ΔLog (τ/KA) (GHRHR F85A; [3]): -0.27 ± 0.04
- Emax [1, 2]: 105 ± 5.52%
- ΔLog (τ/KA) [1, 3]: -4.07 ± 0.04
- Emax (GHRHR Δ102; [2]): 107 ± 2.15%
- ΔLog (τ/KA) (GHRHR Δ102; [3]): -3.55 ± 0.02
- Emax (GHRHR Δ112; [2]): 106 ± 2.34%
- ΔLog (τ/KA) (GHRHR Δ112; [3]): -3.65 ± 0.02
- Emax (GHRHR Δ42; [2]): 104 ± 1.53%
- ΔLog (τ/KA) (GHRHR Δ42; [3]): -2.86 ± 0.02
- Emax (GHRHR Δ52; [2]): 106 ± 1.62%
- ΔLog (τ/KA) (GHRHR Δ52; [3]): -2.83 ± 0.03
- Emax (GHRHR Δ62; [2]): 104 ± 2.19%
- ΔLog (τ/KA) (GHRHR Δ62; [3]): -3.05 ± 0.03
- Emax (GHRHR Δ72; [2]): 104 ± 2.57%
- ΔLog (τ/KA) (GHRHR Δ72; [3]): -2.98 ± 0.04
- Emax (GHRHR Δ82; [2]): 104 ± 2.51%
- ΔLog (τ/KA) (GHRHR Δ82; [3]): -3.14 ± 0.03
- cAMP responses after removal of the N-terminal 89 residues (GHRHR Δ89; HEK293T, Fig. 1B): diminished cAMP responses
- Emax (GHRHR Δ89; HEK-293T, Table S2, HEK293T, mean ± SEM, n = 3-5 in quadruplicate): 106 ± 2.48%
- ΔLog (τ/KA) (GHRHR Δ89; [4]): -3.28 ± 0.03
- cAMP responses after deletion of the entire ECD (GHRHR ΔECD; HEK293T, Fig. 1B): diminished cAMP responses
- pEC50 of cAMP accumulation (GHRHR ΔECD; Table S2, HEK293T, LANCE Ultra cAMP, 30 min RT, 0.5 mM IBMX, mean ± SEM, n = 3-5 in quadruplicate): 5.53 ± 0.07
- Emax of cAMP accumulation (GHRHR ΔECD; Table S2, HEK293T, mean ± SEM, n = 3-5 in quadruplicate): 111.27 ± 3.65 % WT GHRHR
- ΔLog (τ/KA) (GHRHR ΔECD; [4]): -4.55 ± 0.04
